Laboratory results taken from patent publication US11420922B2, “Hydroxylated tropolone inhibitors of nucleotidyl transferases in herpesvirus and Hepatitis B and uses therefor” (Saint Louis University, priority 2015, dated 2022).
Entries after “also recorded” stand apart in the source; their conditions may differ. Read-outs that look alike come from different tables or passages of the source.

Legend:
[1] = Quantitative Vero cell toxicity (MTT); assay type: cell-based; conditions: African green monkey, Vero cells
Experimental: (§1) Qualitative assessments of cytotoxicity were done visually by inspecting the cells in the primary screening assays. For the quantitative assays, cells were plated in 96-well plates at 1.0×10^4 per well. The next day the compounds were added at 0.78 to 100 μM in a final concentration of 1% (v/v) DMSO, and the cells were incubated for 24 hours under conditions identical to those employed for the viral replication inhibition assays. Mitochondrial toxicity was measured by incubating the cells with 0.25 mg/mL thiazolyl blue tetrazolium bromide (MTT, Sigma Aldrich Chemical Co.), the cultures were incubated for 60 min, metabolites were solubilized in acidic isopropanol, and absorbance was read at 570 nm. CC50 values were calculated by non-linear curve fitting using GraphPad Prism.
Quantitative toxicity measurements were conducted for all compounds that suppressed HSV replication by >2 log10 at 5 μM plus a number of compounds with lesser inhibitory activity for comparison. Toxicity was assessed by […]. Cells were plated in 96-well plates at 1.0×10^4 per well. The next day compound was added in concentrations ranging from 0.78 to 100 μM in a final concentration of 1% (v/v) DMSO. The cells were incubated for 24 h under conditions identical to those employed for the viral replication inhibition assays, and then mitochondrial activity was measured with the MTT assay (Sigma Aldrich) according to the manufacturer's instructions. Percent viability was determined for each compound concentration from the […], and then 50% cytotoxic concentrations (CC50) values were calculated by non-linear curve fitting using GraphPad Prism. Consistent with the subjective assessments of toxicity, all compounds selected for quantitative toxicity assessment had CC50 values≥50 μM under these conditions (Table 1).

HSV-1 = assay: Anti-HSV-1 replication assay in Vero cells, titers by plaque assay; assay type: cell-based, herpes simplex virus 1; conditions: Human alphaherpesvirus 1, Vero; for log reduction at 5 µM / log reduction at 50 µM / EC50: 24 h; for log reduction at 5 µM: read-out: HSV-1 Log suppression 5 μM; for log reduction at 50 µM: read-out: HSV-1 Log suppression 50 μM; for EC50: read-out: HSV-1 EC50
Experimental: Vero cells were maintained in Dulbecco's modified Eagle's medium (DMEM) containing 3% newborn calf serum, 3% bovine growth serum, 2 mM L-glutamine and 100 IU/mL penicillin and 0.1 mg/mL streptomycin (P/S). HSV-1 #6 and HSV-2 #1 are de-identified clinical isolates from the Saint Louis University Hospital. Stocks were prepared after a single passage in cell culture and were titered by standard plaque assay (Knipe and Spang, 1982). Wild-type HSV-2 used in FIG. 3 was laboratory strain 333. […] Virus stocks were grown and titered on Vero cells (Morrison and Knipe, 1996).
(§2) Compounds to be screened were diluted in PBS supplemented to contain 2% newborn calf serum and 1% glutamine, and added in 100 μL volume to confluent cell monolayers in 24-well cluster plates. Immediately thereafter HSV-1 and HSV-2, diluted in the supplemented PBS medium, were added to the wells in 50 μl volume such that the final concentration of compound was 50 μM and 5 μM and the multiplicity of infection was 0.1. The plates were incubated at 37° C. for 1 hour and then virus-containing inoculum was removed and the wells were washed once in PBS. Compounds, diluted to 50 μM and 5 μM in DMEM supplemented to contain 2% newborn calf serum and 1% each penicillin/streptomycin, were added at 0.5 mL/well. Plates were incubated at 37° C. an additional 23 hr, and then the plates were visually inspected through a phase contrast microscope for cytopathic effect, and for toxic effect. […] The entire contents of each well were collected by scraping. Samples were frozen at −80° C., and then subsequently thawed, sonicated, and infectious virus titer was determined by standard plaque assay on Vero cell monolayers. Because the compounds were dissolved at 10 mM in 100% DMSO, equivalent dilutions of DMSO were added to additional wells as a control for effects of the diluent. Each experiment was repeated once. EC50 values were determined as above except that serial dilutions of the compound to be tested were prepared starting at 50 μM. The inhibitory values were calculated by non-linear curve-fitting in GraphPad Prism.

HSV-2 = assay: Anti-HSV-2 replication assay in Vero cells, titers by plaque assay; assay type: cell-based, herpes simplex virus 2; conditions: for log reduction at 5 µM / log reduction at 50 µM / EC50: Human alphaherpesvirus 2, Vero, 24 h; for log reduction at 5 µM: read-out: HSV-2 Log suppression 5 μM; for log reduction at 50 µM: read-out: HSV-2 Log suppression 50 μM; for inhibition of wild-type HSV-2, in words: laboratory strain, 24 hr, FIG. 4; for EC50: read-out: HSV-2 EC50
[2] = system: TK-deficient mutant of HSV-2 strain 333, ΔTK-; assay: Replication of acyclovir-resistant TK-deficient HSV-2 mutant in Vero cells; assay type: cell-based, herpes simplex virus 2; conditions: 5 μM, 24 hr, FIG. 4
Experimental: FIGS. 4A & 4B. Sensitivity of thymidine kinase-deficient HSV-2 to αHT compounds. […] Duplicate cultures were collected 24 hours post-infection and infectious virus titers were determined by plaque assay. Titers in compound-treated samples were subtracted from DMSO-treated samples. Values are the averages±one standard error of the mean. α-Hydroxytropolones inhibit an ACV-resistant mutant of HSV-2. […] Log10 suppression was determined relative to the diluent control. Data are the averages of data from duplicate samples±ranges from one of two independent experiments at each concentration.
Vero cells were maintained in Dulbecco's modified Eagle's medium (DMEM) containing 3% newborn calf serum, 3% bovine growth serum, 2 mM L-glutamine and 100 IU/mL penicillin and 0.1 mg/mL streptomycin (P/S). HSV-1 #6 and HSV-2 #1 are de-identified clinical isolates from the Saint Louis University Hospital. Stocks were prepared after a single passage in cell culture and were titered by standard plaque assay (Knipe and Spang, 1982). Wild-type HSV-2 used in FIG. 3 was laboratory strain 333. The TK-deficient mutant of HSV-2 strain 333, ΔTK-, contains a 180-bp KpnI-KpnI deletion in the UL23 open reading frame that abrogates TK activity (McDermott, et al, 1984). ΔTK- was the generous gift of Jim Smiley. Virus stocks were grown and titered on Vero cells (Morrison and Knipe, 1996).
HSV TK-deficient mutants are therefore insensitive to ACV. […] Vero cells were infected with a laboratory strain of HSV-2 and an engineered TK-deficient mutant of the same strain.

[3] = system: patient-derived RNAseH enzymes (genotypes B, C and D); assay: Biochemical RNAseH assay with patient-derived variant enzymes; design: species or system Hepatitis B virus
Text: Four variant patient-derived RNAseH enzymes were expressed as recombinant enzymes, purified, and tested in an RNAseH assay with compounds #1 (FIG. 7A) and #46 (FIG. 7B) at their respective IC50s.
HBV has at least 8 genotypes differing in sequence by 8%. Genetic diversity in the RNAseH domain is about 6%, which is easily high enough to modulate viral sensitivity to RNAseH inhibitors. Therefore, the inventors tested the RNAseH inhibitors #1 [2-hydroxyisoquinoline-1,3(2H,4H)-dione], an HID, and #46 (β-thujaplicinol), an α-hydroxytropolone, for the ability to inhibit variant RNAseHs. Twelve purified, patient-derived RNAseH enzymes (4 from each genotypes B, C and D) were tested with the compounds at their respective IC50 values in a biochemical RNAseH assay. […] Therefore, HBV's high genetic variation is unlikely to present a substantial barrier to drug development.

HBV replication = assay: Chou-Talalay combination of RNAseH inhibitors with Lamivudine against HBV replication; assay type: cell-based, Hepatitis B virus; conditions: CI <1.0 synergy, ~1.0 additive, >1.0 antagonism
Text: Additive interactions are shown with the red line, synergistic interactions below the line, and antagonistic interactions are above the line.
Current nucleos(t)ide analog therapy for HBV has converted hepatitis type B from an implacably progressing illness to a controllable disease. However, patients are only very rarely cured, in part due to the incomplete inhibition of HBV replication. The inventors hypothesized that the novel RNaseH inhibitors would work synergistically with the existing nucleos(t)ide analogs because the two classes of drugs target physically distinct active sites on the viral polymerase protein. […] RNAseH inhibitors from two different chemical classes were employed, compound #1 [2-hydroxyisoquinoline-1,3(2H,4H)-dione], an HID, and #46 (β-thujaplicinol), an α-hydroxytropolone, were tested. Chou-Talaly analysis yields a combination index (CI). CI values<1.0 indicate synergy, CIs of approximately 1.0 indicate additive interactions, and CI values>1.0 indicate antagonism. CI values are calculated at various efficacy levels (EC50, EC75, EC90, and EC95), and a weighted CI value favoring higher efficacy levels is also generated. FIGS. 6A & 6B show the results of four experiments employing compound #1 and three with compound #46. […] Therefore, RNAseH inhibitors act strongly synergistically with an approved nucleos(t)ide analog drug against HBV.

[4] = Mouse liver microsome assay; assay type: in vitro ADME; conditions: 1 μM in mouse liver microsomes
Experimental: Microsomal incubations are run at a final P450 concentration of 0.25 μM. The microsomal mixture is composed of 0.1M potassium phosphate containing 3.3 mM MgCl and 1 μM compound (final concentration). The mixture is prewarmed for 5 min at 37° C. To initiate the reaction a 12 mM stock of NAPDH (1.2 mM, final concentration) is added to the warmed microsomal mixture and aliquots are removed at 0, 5, 10, 20 and 30 min. Samples are quenched with ice cold acetonitrile containing internal standard and either 1.8 mM EDTA or EGTA (final concentration). Samples are vortexed and spun down at 3200 rpm for 5 min. The supernant is transferred to 96-deep well plates and run on LC/MS/MS.

HSV = assay: Anti-HSV SAR summary, HSV type not separated; assay type: cell-based, herpes simplex virus; conditions: grouped by activity at 50, 5 and 0.5 μM
Experimental: as §2
A series of over 20 synthetic αHTs were synthesized and tested to both confirm the initial SAR, and to provide leads for further optimization pursuits (FIG. 5). […] Specifically, biphenyl-containing molecules #118 and 115 inhibit HSV replication by up to 4 log10 at 200 nM. The increased potency over close analogs #111 and 113 confirmed the importance of added lipophilicity.

HBV = HBV replication assay in HepDES19 cells; assay type: cell-based; conditions: Hepatitis B virus; HepDES19 cells; read-out: EC50 (HBV assay)
Experimental: HBV replication assay. Inhibition of HBV replication was measured in HepDES19 cells as previously described (Cai, et al., 2014). Cells were seeded into 6-well plates and incubated in DMEM/F12, 10% fetal bovine serum (FBS), 1% penicillin/streptomycin (P/S) with 1 μg/ml tetracycline. Tetracycline was withdrawn after 24 hours. The test compound was applied to duplicate wells 48 hours later in medium containing a final DMSO concentration of 1%, and medium containing the compound was refreshed daily for the following two days. Cells were harvested and non-encapsidated nucleic acids were digested with micrococcal nuclease (New England Biolabs). HBV DNA was purified from capsids using QIAamp Cador Pathogen Mini Kit (Qiagen) with proteinase K incubation overnight at 37° C. TaqMan PCR was performed for 40 cycles at an annealing temperature of 60° C. Primers and probe (IDT Inc.) for the plus-polarity strand were: 5′[…]3′ (SEQ ID NO: 1); 5′[…]3′ (SEQ ID NO: 2); 5′/56-FAM/[…]/ZEN/[…]/3IABkFQ (SEQ ID NO: 3). Primers and probe for the minus-polarity strand were: 5′[…]3′ (SEQ ID NO: 4); 5′[…]3′ (SEQ ID NO: 5); 5′/56-FAM/[…]/ZEN/[…]/3IABkFQ (SEQ ID NO: 6).

[5] = Cytotoxicity reported with the HBV assay (Table 4); assay type: cell-based; conditions: human, hepatoma cells; read-out: CC50 (HBV assay table)
Experimental: as §1

[6] = 5 μM, moi 0.1, 24 h, vs DMSO, +/− are qualitative, key not given
[7] = 50 μM, moi 0.1, 24 h, vs DMSO, +/−/T are qualitative, key not given

| SMILES | CC50 at 24 h [1] | inhibition of the TK-mutant strain, in words [2] | EC50 (HSV-1) | log reduction at 5 µM (HSV-1) | log reduction at 50 µM (HSV-1) | inhibition of wild-type HSV-2, in words (HSV-2; 5 μM) | EC50 (HSV-2) | log reduction at 5 µM (HSV-2) | log reduction at 50 µM (HSV-2) | also measured |
| --- | --- | --- | --- | --- | --- | --- | --- | --- | --- | --- |
| Nc1nc2c(ncn2COCCO)c(=O)[nH]1 [ACV, Acyclovir, reference compound] | > 100 µM | little effect |  |  |  |  |  |  |  | log reduction at 5 µM (HSV-1; [6]): 4.22; log reduction at 50 µM (HSV-1; [7]): 5.39; log reduction at 5 µM (HSV-2; [6]): 3.6; log reduction at 50 µM (HSV-2; [7]): 4.73 |
| O=C1Cc2ccccc2C(=O)N1O [Compound 1, 2-hydroxyisoquinoline-1,3(2H,4H)-dione] |  |  |  |  |  |  |  |  |  | inhibition of four genotype D RNAseH enzymes ([3]; compound at its IC50, FIGS. 7A & 7B): about 50%; inhibition of all 12 variant RNAseH enzymes, in words ([3]; compound at its IC50, genotypes B, C and D): Equivalent results; weighted CI value (combination index) with Lamivudine (HBV replication): 0.70±0.1 |
| Cc1cc(O)c(=O)c(O)cc1-c1ccc(-c2ccccc2)cc1 [Compound 115] | > 100 µM | efficiently inhibited | 0.13 µM | 4.26 | 4.14 | efficiently inhibited | 0.13 µM | 4.52 | 5.11 | Non-P450 turn-over [4]: No; half-life at 1 μM ([4]; read-out: t ½): 18 min; ER ([4]; extraction ratio): 0.76; CLint scaled at 1 μM ([4]; mouse, liver microsomes): 285 mL/min/kg; predicted hepatic clearance at 1 μM ([4]; mouse, liver microsomes, read-out: CL ′hep): 68 mL/min/kg; anti-HSV SAR group, in words (HSV): highly inhibitory at much lower concentrations; also recorded: fully inhibitory at 0.5 μM |
| COC(=O)c1c(C)cc(O)c(=O)c(O)c1O [Compound 196] | > 100 µM | efficiently inhibited | 0.1 µM | 4.17 | 3.99 | efficiently inhibited | 2.57 µM | 4.05 | 4.56 | log reduction at 1.5 µM (HSV-1; read-out: HSV-1 Log suppression 1.5 μM): 3.82; EC50 (HBV): 6.5 µM; CC50 at 24 h [5]: 13 µM |
